Read-outs that look alike come from different tables or passages of the source.
Tested on: human leukemic cells
Assay: Inhibition of cell proliferation (growth kinetics by cell counting) in culture
Conditions: L-Dopa 10 µg/ml, read-out: inhibition in %, based on a control free of active agent
Source text: Every second day, the culture medium of each test batch was replaced by fresh medium and active agent.

## N[C@@H](Cc1ccc(O)c(O)c1)C(=O)O [L-Dopa, 3-hydroxy-L-tyrosine]
72 Hrs.
  inhibition at 10 µg/mL: 18%
144 Hrs.
  inhibition at 10 µg/mL: 58%

— EP0114563A1, “Cytostatically effective combination” (SCHERING AKTIENGESELLSCHAFT, priority 1982, dated 1984)
